Entries after “also recorded” stand apart in the source; their conditions may differ.
Key:
GsLDH [1] = biological target: T1, GsLDH (Geobacillus stearothermophilus, UniProt P00344); assay: GsLDH kinetic studies; format: biochemical; conditions: WT GsLDH
GsLDH [2] = biological target: T1, GsLDH; assay: Isothermal titration calorimetry of cofactor binding to GsLDH; conditions: for K B × 10^5 / TΔS B / ΔG B / ΔH B / binding stoichiometry n / Kd: presence of FBP; for K B × 10^5 / TΔS B / ΔG B / ΔH B / Kd: 30°C; for enthalpy change on titration of the enzyme: absence of FBP; for Kd: K d

T1 sequence (P00344 whole entry): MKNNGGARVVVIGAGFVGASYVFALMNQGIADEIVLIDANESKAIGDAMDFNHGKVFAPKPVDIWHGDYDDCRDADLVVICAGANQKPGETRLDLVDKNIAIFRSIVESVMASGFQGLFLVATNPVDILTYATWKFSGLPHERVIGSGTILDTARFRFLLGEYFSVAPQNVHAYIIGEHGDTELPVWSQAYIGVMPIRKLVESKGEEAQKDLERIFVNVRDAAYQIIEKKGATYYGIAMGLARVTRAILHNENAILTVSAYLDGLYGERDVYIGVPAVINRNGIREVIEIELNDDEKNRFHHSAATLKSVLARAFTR

Compound | fold decrease of K m for pyruvate in the presence of FBP (GsLDH [1]) | fold improvement of catalytic efficiency (k cat/K m) in the presence of FBP (GsLDH [1]) | K B × 10^5 (GsLDH [2]; WT) | TΔS B (GsLDH [2]; WT) | ΔG B (GsLDH [2]; WT) | ΔH B (GsLDH [2]; WT) | enthalpy change on titration of the enzyme (GsLDH [2]) | binding stoichiometry n (GsLDH [2]) | Kd (GsLDH [2]; WT with pyruvate) | Kd (GsLDH [2]; WT) | K B × 10^5 (GsLDH [2]; WT with pyruvate) | TΔS B (GsLDH [2]; WT with pyruvate) | ΔG B (GsLDH [2]; WT with pyruvate) | ΔH B (GsLDH [2]; WT with pyruvate)
O=C(COP(=O)(O)O)[C@@H](O)[C@H](O)[C@H](O)COP(=O)(O)O [FBP, fructose 1,6‐bisphosphate] | 5.6 fold | 3.3 fold | – | – | – | – | – | – | – | – | – | – | – | –
reduced nicotinamide adenine dinucleotide [NADH] | – | – | 8 ± 2 10^5 M^−1 | -50.8 kcal/mol | -8.2 kcal/mol | -59 ± 4 kcal/mol | did not result in significant enthalpy changes; also recorded: too low to be detected | ~1 | – | – | – | – | – | –
NC(=O)c1ccc[n+]([C@@H]2O[C@H](COP(=O)([O-])OP(=O)(O)OC[C@H]3O[C@@H](n4cnc5c(N)ncnc54)[C@H](O)[C@@H]3O)[C@@H](O)[C@H]2O)c1 [NAD^+, oxidized nicotinamide adenine dinucleotide] | – | – | 3 ± 2 10^5 M^−1 | -134.4 kcal/mol | -7.6 kcal/mol | -142 ± 20 kcal/mol | did not result in significant enthalpy changes | ~1 | 1600 nM | 3000 nM | 6 ± 2 10^5 M^−1 | -37.0 kcal/mol | -8.0 kcal/mol | -45 ± 2 kcal/mol

From PMC12197871 (Protein Science : A Publication of the Protein Society, 2025)
